Structures can show the parent of a compound that is named as a salt. Where two headings read alike, the source gives them in different places.
System: compound 48/80-induced lethality in rats
Test: Protection of rats from compound 48/80-induced lethality
Format: in vivo, rat (male, inbred Wistar strain)
Conditions: Rattus norvegicus, read-out: Compound 48/80 lethality test in rats-ED50
From the text: PROTECTION OF RATS FROM COMPOUND 48/80-INDUCED LETHALITY
Compound 48/80, a mixture of oligomers obtained by condensation of 4-methoxy-N-methylbenzeneethanamine and formaldehyde has been described as a potent histamine releasing agent (Int. Arch. Allergy, 13, 336 (1958)). The protection from compound 48/80-induced lethal circulatory collapse appears to be a simple way of evaluating quantitatively the antihistaminic activity of test compounds. Male rats of an inbred Wistar strain, weighing 240-260 g were used in the experiment. After overnight starvation the rats were transferred to conditioned laboratories (temp.=21±1° C., relative humidity=65±5%). The rats were treated subcutaneously or orally with a test compound or with the solvent (NaCl solution, 0.9%). One hour after treatment there was injected intravenously compound 48/80, freshly dissolved in water, at a dose of 0.5 mg/kg (0.2 ml/100 g of body weight). In control experiments, wherein 250 solvent-treated animals were injected with the standard dose of compound 48/80, not more than 2.8% of the animals survived after 4 hours. Survival after 4 hours is therefore considered to be a safe criterion of a protective effect of drug administration.
Said ED50 -values are the values in mg/kg body weight at which the tested compounds protect 50% of the tested animals against compound 48/80-induced lethality.

[1] = test compound subcutaneously or orally (route of each value not given) 1 hour before compound 48/80 0.5 mg/kg intravenously, dose protecting 50% of animals, survival after 4 hours

| Compound | ED50 [1] [mg/kg] | ED50 (4 h) [mg/kg] |
| --- | --- | --- |
| COc1ccc(CCN2CCC(Nc3nc4ccccc4n3Cc3cscn3)CC2)cc1 [Compound 17, N-[1-[2-(4-methoxyphenyl)ethyl]-4-piperidinyl]-1-(4-thiazolyl)-methyl)-1H-benzimidazol-2-amine dihydrobromide. dihydrate] | 0.08 | – |
| Cc1nccn1CCN1CCC(Nc2nc3ccccc3n2Cc2ccc(F)cc2)CC1 [Compound 20, 1-[(4-fluorophenyl)methyl]-N-[1-[2-(2-methyl-1H-imidazol-1-yl)ethyl]-4-piperidinyl]-1H-benzimidazol-2-amine] | 0.31 | – |
| CSC(=NC#N)NCCN1CCC(Nc2nc3cccnc3n2Cc2ccc(F)cc2)CC1 [Compound 21, S-methyl N'-cyano-N-[2-[4-[[3-[(4-fluorophenyl)methyl]-3H-imidazo[4,5-b]pyridin-2-yl]amino]-1-piperidinyl]ethyl]carbamimidothioate] | 0.16 | – |
| N=C(NCCN1CCC(Nc2nc3ccccc3n2Cc2ccc(F)cc2)CC1)N[N+](=O)[O-] [Compound 23, N-[2-[4-[[1-[(4-fluorophenyl)methyl]-1H-benzimidazol-2-yl]amino]-1-piperidinyl]ethyl]-N'-nitroguanidine] | – | 0.08 |
| COC(CNC(=NC#N)NCCN1CCC(Nc2nc3ccccc3n2Cc2ccc(F)cc2)CC1)OC.O=C(O)/C=C/C(=O)O.O=C(O)/C=C/C(=O)O [Compound 24, N"-cyano-N-(2,2-dimethoxyethyl)-N'-[2-[4-[[1-[(4-fluorophenyl)methyl]-1H-benzimidazol-2-yl]amino]-1-piperidinyl]ethyl]guanidine (E)-2-butenedioate(1:2)] | 0.16 | – |
| CN(C)C(=NC#N)NCCN1CCC(Nc2nc3ccccc3n2Cc2ccc(F)cc2)CC1 [Compound 25] | 0.08 | – |
| N#CN=C(NCCN1CCOCC1)NCCN1CCC(Nc2nc3ccccc3n2Cc2ccc(F)cc2)CC1 [Compound 26, N"-cyano-N-[2-[4-[[1-[(4-fluorophenyl)methyl]-1H-benzimidazol-2-yl]-aminol]-1-piperidinyl]ethyl]-N'-[2-(4-morpholinyl)ethyl]guanidine monohydrate] | 0.16 | – |
| Fc1ccc(Cn2c(NC3CCN(CCNC(=S)N4CCOCC4)CC3)nc3ccccc32)cc1 [Compound 28, N-[2-[4-[[1-[(4-fluorophenyl)methyl]-1H-benzimidazol-2-yl]amino]-1-piperidinyl]ethyl]-4-morpholinecarbothioamide] | 0.16 | – |
| O.OCCCNC(=S)NCCN1CCC(Nc2nc3ccccc3n2Cc2ccc(F)cc2)CC1 [Compound 30, N-[2-[4-[[1-[(4-fluorophenyl)methyl]-1H-benzimidazol-2-yl]amino]-1-piperidinyl]ethyl]-N'(3-hydroxypropyl)thiourea monohydrate] | 0.08 | – |
| CN(C)C(=S)NCCN1CCC(Nc2nc3ccccc3n2Cc2ccc(F)cc2)CC1 [Compound 31] | 0.08 | – |
| CCN(CC)C(=S)NCCN1CCC(Nc2nc3ccccc3n2Cc2ccc(F)cc2)CC1 [Compound 32, N,N-diethyl-N'-[2-[4-[[1-[(4-fluorophenyl)methyl]-1H-benzimidazol-2-yl]-amino]-1-piperidinyl]ethyl]thiourea] | 0.16 | – |
| NNC(=S)NCCN1CCC(Nc2nc3ccccc3n2Cc2ccc(F)cc2)CC1.O [Compound 34, N-[2-[4-[[1-[(4-fluorophenyl)methyl]-1H-benzimidazol-2-yl]amino]-1-piperidinyl]ethyl]hydrazinecarbothioamide monohydrate] | 0.02 | – |
| CCOC(=S)NCCN1CCC(Nc2nc3ccccc3n2Cc2ccc(F)cc2)CC1 [Compound 35, ethyl [2-[4-[[1-[(4-fluorophenyl)-methyl]-1H-benzimidazol-2-yl]amino]-1-piperidinyl]ethyl]carbamothioate] | 0.16 | – |
| CNC(=O)N1CCC(N2CCC(Nc3nc4ccccc4n3Cc3ccc(F)cc3)CC2)CC1 [Compound 36, 4-[[1-(4-fluorophenyl)methyl]-1H-benzimidazol-2-ylamino]-N-methyl-[1,4'-bipiperidine]-1'-carboxamide monohydrate] | 0.16 | – |
| CNC(=S)N1CCCC(N2CCC(Nc3nc4ccccc4n3Cc3ccc(F)cc3)CC2)C1 (centres unmarked) [Compound 37, 4-[[1-[(4-fluorophenyl)methyl]-1H-benzimidazol-2-yl]amino]-N-methyl-[1,3'-bipiperidine]-1'-carbothioamide] | 0.08 | – |
| Fc1ccc(Cn2c(NC3CCN(CCNC(=S)Nc4ccccc4)CC3)nc3ccccc32)cc1 [Compound 40, N-[2-[4-[[1-[(4-fluorophenyl)methyl]-1H-benzimidazol-2-yl]amino]-1-piperidinyl]ethyl]-N'phenylthiourea] | 0.16 | – |
| O=CNCCN1CCC(Nc2nc3ccccc3n2Cc2ccc(F)cc2)CC1 [Compound 45, N-[2-[4-[[1-[(4-fluorophenyl)methyl]-1H-benzimidazol-2-yl]amino]-1-piperidinyl]ethyl]formamide] | 0.08 | – |
| O=CNCCN1CCC(Nc2nc3ccccc3n2Cc2ccco2)CC1 [Compound 46, N-[2-[4-[[1-(2-furanylmethyl)-1H-benzimidazol-2-yl]amino]-1-piperidinyl]ethyl]formamide hemihydrate] | 0.16 | – |
| OCc1ccc(CN2CCC(Nc3nc4ccccc4n3Cc3ccc(F)cc3)CC2)o1 [Compound 47, 5-[[4-[[1-[(4-fluorophenyl)methyl]-1H-benzimdazol-2-yl]amino]-1-piperidinyl]methyl]-2-furanmethanol] | 0.08 | – |
| Fc1ccc(Cn2c(NC3CCN(Cc4ccc(CSCCNc5ncccn5)o4)CC3)nc3ccccc32)cc1 [Compound 50] | 0.16 | – |
| CC(=O)Nc1ccccc1C(=O)NCCN1CCC(Nc2nc3ccccc3n2Cc2ccc(F)cc2)CC1 [Compound 51, 2-(acetylamino)-N-[2-[4-[[1-[(4-fluorophenyl)methyl]-1H-benzimidazol-2-yl]amino]-1-piperidinyl]ethyl]benzamide] | 0.16 | – |
| CCN(C(C)=O)c1ccccc1C(=O)NCCN1CCC(Nc2nc3ccccc3n2Cc2ccc(F)cc2)CC1 [Compound 52, 2-(acetylethylamino)-N-[2-[4-[[(1-[(4-fluorophenyl)methyl]-1H-benzimidazol-2yl]amino]-1-piperidinyl]ethyl]benzamide (E) -2-butenedioate(1:2)] | 0.31 | – |
| CS(=O)(=O)Nc1ccc(CCN2CCC(Nc3nc4ccccc4n3Cc3ccc(F)cc3)CC2)cc1 [Compound 53, N-4-[2-[4-[[1-[(4-fluorophenyl)methyl]-1H-benzimidazol-2-yl]amino]-1-piperidinyl]ethyl] methanesulfonamide monohydrate] | 0.16 | – |
| NC(=O)Nc1ccc(CCN2CCC(Nc3nc4ccccc4n3Cc3ccc(F)cc3)CC2)cc1 [Compound 56] | 0.04 | – |
| CNC(=O)Nc1ccc(CCN2CCC(Nc3nc4ccccc4n3Cc3ccc(F)cc3)CC2)cc1 [Compound 57, N-[4-[2-[4-[[1-[(4-fluorophenyl)methyl]-1H-benzimidazol-2-yl]amino]-1-piperidinyl]ethyl]phenyl]-N'methylurea] | 0.08 | – |
| Br.Br.Oc1ccc(CCN2CCC(Nc3nc4ccccc4n3Cc3cscn3)CC2)cc1 [Compound 59, 4-[2-[4-[[1-(4-thiazolylmethyl)-1H-benzimidazol-2-yl]amino]-1-piperidinyl]ethyl]phenol dihydrobromide] | 0.08 | – |

From patent US4588722A, “N-(4-piperidinyl) bicyclic condensed 2-imidazolamine derivatives” (priority 1984, dated 1986)
